One block for each compound: values may come before it.
What was measured:
KP1005 (CTX-M-14) [1] = test: organism not typed; format: cell-based; details: read-out: Aztreonam MIC
KP1009 (CTX-M-15) [2] = test: organism not typed; format: cell-based; details: read-out: Aztreonam MIC
ec308 (SHV-5) [3] = test: Aztreonam MIC of test strain; format: cell-based
KP1010 (SHV-12) [4] = test: Aztreonam MIC of test strain; format: cell-based
ec302 (TEM-10) [5] = test: Aztreonam MIC of test strain; format: cell-based
KP1004 (KPC-2) [6] = test: organism not typed; format: cell-based; details: read-out: Aztreonam MIC
EC1010 (CMY-6) [7] = test: Aztreonam MIC of test strain; format: cell-based
PAM1032/KPC-2 [8] = test: Biapenem MIC; format: cell-based; details: Pseudomonas aeruginosa; PAM1032 with KPC-2 plasmid
Method: (§1) Efflux of BLIs from Pseudomonas aeruginosa by the MexAB-OprM efflux pump was also evaluated. The plasmid expressing the gene encoding KPC-2 was introduced into two strains of P. aeruginosa, PAM1032 and PAM1154 that overexpressed or lacked MexAB-OprM, respectively. Due to expression of KPC-2 both strains became resistant to biapenem. […] Potency of BLIs to potentiate biapenem in these strains was determined. […] The ratio of MPC64 values for each BLI in PAM1032/KPC-2 (efflux proficient) and PAM1154/KPC-2 (efflux deficient) was determined to generate the Efflux Index (EI).

PAM1154/KPC-2 [9] = test: Biapenem MIC; format: cell-based; details: Pseudomonas aeruginosa; PAM1154 with KPC-2 plasmid
Method: as §1

KP1004 (KPC-2) [10] = test: Biapenem MIC of test strain; details: read-out: Biapenem MIC
KP1086 (OXA-48) [11] = test: Biapenem MIC of test strain; details: read-out: Biapenem MIC
KP1005 (CTX-M-14) [12] = test: Aztreonam potentiation (MPC@4); format: cell-based; details: aztreonam 4 μg/mL
KP1009 (CTX-M-15) [13] = test: Aztreonam potentiation (MPC@4); format: cell-based; details: aztreonam 4 μg/mL
ec308 (SHV-5) [14] = test: Aztreonam potentiation (MPC@4); format: cell-based; details: aztreonam 4 μg/mL
KP1010 (SHV-12) [15] = test: Aztreonam potentiation (MPC@4); format: cell-based; details: aztreonam 4 μg/mL
ec302 (TEM-10) [16] = test: Aztreonam potentiation (MPC@4); format: cell-based; details: aztreonam 4 μg/mL
KP1004 (KPC-2) [17] = test: Aztreonam potentiation (MPC@4); format: cell-based; details: aztreonam 4 μg/mL
ECL1002 [18] = test: Aztreonam potentiation (MPC@4); format: cell-based; details: aztreonam 4 μg/mL
EC1010 (CMY-6) [19] = test: Aztreonam potentiation (MPC@4); format: cell-based; details: aztreonam 4 μg/mL
KP1005 (CTX-M-14) [20] = test: Tigemonam potentiation (MPC@4); format: cell-based; details: tigemonam 4 μg/mL
KP1009 (CTX-M-15) [21] = test: Tigemonam potentiation (MPC@4); format: cell-based
ec308 (SHV-5) [22] = test: Tigemonam potentiation (MPC@4); format: cell-based; details: tigemonam 4 μg/mL
KP1010 (SHV-12) [23] = test: Tigemonam potentiation (MPC@4); format: cell-based
ec302 (TEM-10) [24] = test: Tigemonam potentiation (MPC@4); format: cell-based; details: tigemonam 4 μg/mL
ECL1002 [25] = test: Tigemonam potentiation (MPC@4); format: cell-based; details: tigemonam 4 μg/mL
EC1010 (CMY-6) [26] = test: Tigemonam potentiation (MPC@4); format: cell-based; details: tigemonam 4 μg/mL; EC1010, CMY-6
CTX-M-14 = CTX-M-14 (Escherichia coli, UniProt Q9L5C7); test: Inhibition of nitrocefin cleavage by purified enzyme (Ki); format: biochemical; details: nitrocefin reporter substrate; 10 min preincubation; read-out: Ki CTX-M-14, NCF
Chain of CTX-M-14 (Q9L5C7 29-291): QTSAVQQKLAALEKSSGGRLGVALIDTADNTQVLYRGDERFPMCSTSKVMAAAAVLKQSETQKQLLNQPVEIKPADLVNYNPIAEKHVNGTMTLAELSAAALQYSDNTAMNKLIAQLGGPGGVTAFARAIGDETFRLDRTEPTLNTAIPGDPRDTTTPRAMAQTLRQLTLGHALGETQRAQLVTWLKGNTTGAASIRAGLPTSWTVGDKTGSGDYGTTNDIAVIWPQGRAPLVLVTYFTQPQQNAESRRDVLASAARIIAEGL
Method: (§2) Ki values of inhibition of purified class A, C and D enzymes were determined spectrophotometrically using nitrocefin as reporter substrate. Purified enzymes were mixed with various concentrations of inhibitors in reaction buffer and incubated for 10 min at room temperature. Nitrocefin was added and substrate cleavage profiles were recorded at 490 nm every 10 sec for 10 min.

SHV-12 = SHV-12 (Klebsiella pneumoniae, UniProt P0AD64, E235K/G234S/L31Q); test: as above; format: biochemical
Chain of SHV-12 (P0AD64 22-286 L31Q/G234S/E235K): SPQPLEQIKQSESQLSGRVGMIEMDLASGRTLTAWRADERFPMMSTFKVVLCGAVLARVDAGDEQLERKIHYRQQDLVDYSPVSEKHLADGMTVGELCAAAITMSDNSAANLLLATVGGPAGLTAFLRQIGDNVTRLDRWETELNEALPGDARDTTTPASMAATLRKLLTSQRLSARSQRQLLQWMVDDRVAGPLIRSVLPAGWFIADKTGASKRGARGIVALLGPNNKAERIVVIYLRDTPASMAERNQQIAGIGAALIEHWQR
Method: as §2

CMY-2 = CMY-2 (Klebsiella pneumoniae, UniProt Q48434); test: as above; format: biochemical; details: nitrocefin reporter substrate; 10 min preincubation; read-out: Ki CMY-2, NCF
Chain of CMY-2 (Q48434 21-381, species assumed): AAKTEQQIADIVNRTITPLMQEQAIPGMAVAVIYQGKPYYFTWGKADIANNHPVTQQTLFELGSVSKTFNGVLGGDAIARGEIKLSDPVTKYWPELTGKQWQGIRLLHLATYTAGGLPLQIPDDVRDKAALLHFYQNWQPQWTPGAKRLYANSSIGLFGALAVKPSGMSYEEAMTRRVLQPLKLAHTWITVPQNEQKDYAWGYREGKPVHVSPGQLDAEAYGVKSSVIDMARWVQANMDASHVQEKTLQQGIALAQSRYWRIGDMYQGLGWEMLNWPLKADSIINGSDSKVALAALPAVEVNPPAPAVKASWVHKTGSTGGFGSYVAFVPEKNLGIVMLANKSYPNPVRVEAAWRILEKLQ
Method: as §2, with “min. These experiments confirmed that the described compounds are inhibitors with a broad-spectrum of activity towards various β-lactamases.” for “min.”

KPC-2 = KPC-2 (Klebsiella pneumoniae, UniProt Q9F663); test: as above; format: biochemical; details: nitrocefin reporter substrate; 10 min preincubation; read-out: Ki KPC-2, NCF
Chain of KPC-2 (Q9F663 25-293, looked up, species assumed): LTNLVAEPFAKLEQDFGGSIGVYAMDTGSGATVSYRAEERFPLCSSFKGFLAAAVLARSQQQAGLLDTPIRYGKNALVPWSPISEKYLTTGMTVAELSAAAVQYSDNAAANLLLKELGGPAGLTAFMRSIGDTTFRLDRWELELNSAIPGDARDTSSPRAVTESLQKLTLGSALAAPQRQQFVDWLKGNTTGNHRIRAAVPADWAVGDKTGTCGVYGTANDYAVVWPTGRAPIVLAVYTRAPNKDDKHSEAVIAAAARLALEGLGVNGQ
Method: as §2, with “min. These experiments confirmed that the described compounds are inhibitors with a broad-spectrum of activity towards various β-lactamases.” for “min.”

OXA-48 = OXA-48 (Klebsiella pneumoniae, UniProt Q6XEC0); test: as above; format: biochemical; details: nitrocefin reporter substrate; 10 min preincubation; read-out: Ki OXA-48, NCF
Chain of OXA-48 (Q6XEC0 23-265, looked up, species assumed): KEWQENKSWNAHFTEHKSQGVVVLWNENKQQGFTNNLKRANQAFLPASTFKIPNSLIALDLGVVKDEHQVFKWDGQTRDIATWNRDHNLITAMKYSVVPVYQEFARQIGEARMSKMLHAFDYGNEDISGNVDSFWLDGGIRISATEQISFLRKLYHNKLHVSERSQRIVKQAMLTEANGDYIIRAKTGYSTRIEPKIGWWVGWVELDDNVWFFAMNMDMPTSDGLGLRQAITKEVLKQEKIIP
Method: as §2, with “min. These experiments confirmed that the described compounds are inhibitors with a broad-spectrum of activity towards various β-lactamases.” for “min.”

P99 = P99 (Enterobacter cloacae, UniProt P05364); test: biochemical; details: nitrocefin reporter substrate; 10 min preincubation; read-out: Ki P99, NCF
Chain of P99 (P05364 21-381): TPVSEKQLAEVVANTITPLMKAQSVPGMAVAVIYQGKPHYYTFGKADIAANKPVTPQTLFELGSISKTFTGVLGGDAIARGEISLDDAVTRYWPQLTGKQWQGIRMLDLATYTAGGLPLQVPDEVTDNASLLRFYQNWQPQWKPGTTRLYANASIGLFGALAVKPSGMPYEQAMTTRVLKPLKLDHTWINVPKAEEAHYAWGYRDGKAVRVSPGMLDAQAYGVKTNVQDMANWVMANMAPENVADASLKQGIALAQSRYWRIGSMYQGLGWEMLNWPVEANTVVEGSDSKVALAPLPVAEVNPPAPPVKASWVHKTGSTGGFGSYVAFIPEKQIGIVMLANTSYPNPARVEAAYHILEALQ
Method: as §2

PAM1032/KPC-2 [27] = test: Biapenem potentiation MPC64, efflux proficient strain; format: cell-based, Pseudomonas aeruginosa; set-up: unit not given here; details: efflux proficient (MexAB-OprM overexpressed); decrease biapenem MIC 64-fold, 32 to 0.5 μg/ml
Method: as §1

PAM1154/KPC-2 [28] = test: Biapenem potentiation MPC64, efflux deficient strain; format: cell-based, Pseudomonas aeruginosa; set-up: unit not given here; details: efflux deficient (lacks MexAB-OprM); decrease biapenem MIC 64-fold, 32 to 0.5 μg/ml
Method: as §1

Oral pharmacokinetics = format: in vivo; details: rat, plasma; rats, single oral dose 30 mg/kg, n=3; read-out: Range of % Oral Bioavailability
Method: Several compounds were tested for their oral pharmacokinetics. Rats (n=3 per compound) were administered a single oral dose. Oral doses were administered as a bolus. Plasma (˜0.3 mL) samples were collected from each rat at designated time points up to 24 hours. Blood samples were centrifuged within 5 min of collection at 12000 g for 5 min to obtain plasma. The plasma samples were stored at −80° C. until analyzed. Data were analyzed using WinNonlin.

KP1004 (KPC-2) [29] = test: Biapenem potentiation (MPC@1); details: biapenem 1 μg/mL
KP1086 (OXA-48) [30] = test: Biapenem potentiation (MPC@1); details: biapenem 1 μg/mL
KP1005 (CTX-M-14) [31] = test: Tigemonam MIC of test strain
KP1009 (CTX-M-15) [32] = test: Tigemonam MIC of test strain
ec308 (SHV-5) [33] = test: Tigemonam MIC of test strain
KP1010 (SHV-12) [34] = test: Tigemonam MIC of test strain
ec302 (TEM-10) [35] = test: Tigemonam MIC of test strain
ECL1002 [36] = test: Tigemonam MIC of test strain
EC1010 (CMY-6) [37] = test: Tigemonam MIC of test strain

Structure (SMILES): C[C@H]1[C@H](NC(=O)/C(=N\OC(C)(C)C(=O)O)c2csc(N)n2)C(=O)N1S(=O)(=O)O [Aztreonam]
- MIC (KP1005 (CTX-M-14) [1]): > 128 µg/mL
- MIC (KP1009 (CTX-M-15) [2]): > 128 µg/mL
- MIC (ec308 (SHV-5) [3]): > 128 µg/mL
- MIC (KP1010 (SHV-12) [4]): 64 µg/mL
- MIC (ec302 (TEM-10) [5]): 128 µg/mL
- MIC (KP1004 (KPC-2) [6]): > 128 µg/mL
- MIC (EC1010 (CMY-6) [7]): > 128 µg/mL

Structure (SMILES): C[C@@H](O)[C@H]1C(=O)N2C(C(=O)[O-])=C(SC3Cn4cnc[n+]4C3)[C@H](C)[C@H]12 (some centres unmarked) [Biapenem]
- MIC (PAM1032/KPC-2 [8]): 32 µg/mL
- MIC (PAM1154/KPC-2 [9]): 32 µg/mL
- MIC (KP1004 (KPC-2) [10]): 32 µg/mL
- MIC (KP1086 (OXA-48) [11]): 16 µg/mL

Structure (SMILES): Nc1nnc(SCC(=O)N[C@H]2CC=C[C@@H]3CC(=O)OB2O3)s1 [Compound 6, 2-(5-AMINO-1,3,4-THIADIAZOL-2-YLTHIO)-N-((2R,6S)-8-OXO-9,10-DIOXA-1-BORABICYCLO[4.3.1]DEC-4-EN-2-YL)ACETAMIDE]
- MPC@4 aztreonam potentiation (KP1005 (CTX-M-14) [12]): X (X = MPC@4 ≤ 5 μg/mL)
- MPC@4 aztreonam potentiation (KP1009 (CTX-M-15) [13]): X (X = MPC@4 ≤ 5 μg/mL)
- MPC@4 aztreonam potentiation (ec308 (SHV-5) [14]): X (X = MPC@4 ≤ 5 μg/mL)
- MPC@4 aztreonam potentiation (KP1010 (SHV-12) [15]): X (X = MPC@4 ≤ 5 μg/mL)
- MPC@4 aztreonam potentiation (ec302 (TEM-10) [16]): X (X = MPC@4 ≤ 5 μg/mL)
- MPC@4 aztreonam potentiation (KP1004 (KPC-2) [17]): X (X = MPC@4 ≤ 5 μg/mL)
- MPC@4 aztreonam potentiation (ECL1002 [18]): X (X = MPC@4 ≤ 5 μg/mL)
- MPC@4 aztreonam potentiation (EC1010 (CMY-6) [19]): X (X = MPC@4 ≤ 5 μg/mL)
- MPC@4 tigemonam potentiation (KP1005 (CTX-M-14) [20]): X (X = MPC@4 ≤ 5 μg/mL)
- MPC@4 tigemonam potentiation (KP1009 (CTX-M-15) [21]): X (key: X = MPC@4 ≤ 5 μg/mL; Y = 5 μg/mL < MPC@4 ≤ 20 μg/mL; Z = MPC@4 > 20 μg/mL)
- MPC@4 tigemonam potentiation (ec308 (SHV-5) [22]): X (X = MPC@4 ≤ 5 μg/mL)
- MPC@4 tigemonam potentiation (KP1010 (SHV-12) [23]): X (key: X = MPC@4 ≤ 5 μg/mL; Y = 5 μg/mL < MPC@4 ≤ 20 μg/mL; Z = MPC@4 > 20 μg/mL)
- MPC@4 tigemonam potentiation (ec302 (TEM-10) [24]): Y (Y = 5 μg/mL < MPC@4 ≤ 20 μg/mL)
- MPC@4 tigemonam potentiation (ECL1002 [25]): X (X = MPC@4 ≤ 5 μg/mL)
- MPC@4 tigemonam potentiation (EC1010 (CMY-6) [26]): X (X = MPC@4 ≤ 5 μg/mL)
- Ki (CTX-M-14): < 100 nM
- Ki (SHV-12): < 100 nM
- Ki (CMY-2): < 100 nM
- Ki (KPC-2): 100 to 1000 nM
- Ki (OXA-48): 100 to 1000 nM
- Ki (P99): < 100 nM
- PAM1032/KPC-2 Biapenem MPC64 (PAM1032/KPC-2 [27]): 40
- PAM1154/KPC-2 Biapenem MPC64 (PAM1154/KPC-2 [28]): 5
- bioavailability (Oral pharmacokinetics): 2 to 4%
- MPC@1 biapenem potentiation (KP1004 (KPC-2) [29]): X (X = MPC@1 ≤ 5 μg/mL)
- MPC@1 biapenem potentiation (KP1086 (OXA-48) [30]): Z (Z = MPC@1 > 20 μg/mL)

- Tigemonam MIC (KP1005 (CTX-M-14) [31]): >64 µg/mL
- Tigemonam MIC (KP1009 (CTX-M-15) [32]): >64 µg/mL
- Tigemonam MIC (ec308 (SHV-5) [33]): >64 µg/mL
- Tigemonam MIC (KP1010 (SHV-12) [34]): >64 µg/mL
- Tigemonam MIC (ec302 (TEM-10) [35]): >64 µg/mL
- Tigemonam MIC (ECL1002 [36]): 32 µg/mL
- Tigemonam MIC (EC1010 (CMY-6) [37]): 16 µg/mL
Structure (SMILES): CC1(C)[C@H](NC(=O)/C(=N\OCC(=O)O)c2csc(N)n2)C(=O)N1OS(=O)(=O)O [Tigemonam]
